From patent publication US11236122B2, “Triterpene amine derivatives” (DFH THERAPEUTICS, priority 2018, dated 2022)
Where a name gives a salt, the structure may show the parent alone.

How the values were obtained:
pNL4-3 SP1-V7A = test: CA-SP1 accumulation assay, SP1-V7A derivative; format: cell-based, HIV-1; conditions: HeLa or 293T cells; for % CA-SP1 Accumulation 10 nM SP1 V7A: 10 nM compound; for % CA-SP1 Accumulation 100 nM SP1 V7A: 100 nM compound
Experimental: (§1) Cell culture, plasmids and transfections. The MT-4 T-cell line was maintained in RPMI-1640 medium supplemented with 10% (vol/vol) fetal bovine serum (FBS), 2 mM glutamine, 100 U/mL penicillin and 100 μg/mL streptomycin at 37° C. in a humidified 5% CO2 atmosphere. HeLa and 293T cells were maintained in Dulbecco's modified Eagle's medium (DMEM) supplemented with 5% (vol/vol) FBS, 2 mM glutamine, 100 U/mL penicillin and 100 μg/mL streptomycin. Molecular clones used in this study were WT pNL4-3 and the derivative encoding a Val-to-Ala mutation at SP1 residue 7, referred to as SP1-V7A. The MT-4 T-cell line was transfected the DEAE/dextran procedure; HeLa and 293T cells were transfected with linear polyethylenimine (L-PEI) or Lipofectamine 2000 (Invitrogen) as recommended by the supplier.
(§2) CA-SP1 accumulation assay. For CA-SP1 accumulation assays, HeLa or 293T cells were transfected with WT pNL4-3 or the SP1-V7A derivative. At 24 h post-transfection, cells were starved in Met/Cys-free medium for 30 min and metabolically labeled with [^35S]Met/Cys-Pro-mix (Amersham) for 2-3 h. Maturation inhibitors were maintained in the cultures throughout the transfection and labeling period. Viruses were collected by ultracentrifugation at 99,000×g for 45-60 min. Virus pellets were resuspended in Triton X-100 lysis buffer [300 mM NaCl, 50 mM Tris-HCl (pH 7.5), 0.5% Triton X-100, 10 mM iodoacetamide, and protease inhibitor cocktail tablets (Roche)]. CA and CA-SP1 proteins were separated on 13.5-15% polyacrylamide gels by SDS-polyacrylamide gel electrophoresis, exposed to a phosphorimager plate (Fuji) and quantified by Quantity One software (Bio-Rad).

WT pNL4-3 = test: CA-SP1 accumulation assay, WT NL4-3; format: cell-based, HIV-1; conditions: HeLa or 293T cells; for % CA-SP1 Accumulation 10 nM NL4-3: 10 nM compound; for % CA-SP1 Accumulation 100 nM NL4-3: 100 nM compound
Experimental: as §1, §2

| SMILES | % CA-SP1 Accumulation 10 nM SP1 V7A (pNL4-3 SP1-V7A) | % CA-SP1 Accumulation 10 nM NL4-3 (WT pNL4-3) | % CA-SP1 Accumulation 100 nM SP1 V7A (pNL4-3 SP1-V7A) | % CA-SP1 Accumulation 100 nM NL4-3 (WT pNL4-3) |
| --- | --- | --- | --- | --- |
| C=C(C)[C@@H]1CC[C@]2(CCNCCN3CCN(c4ccccc4)CC3)CC[C@]3(C)[C@H](CC[C@@H]4[C@@]5(C)CC[C@H](OC(=O)CC(C)(C)C(=O)O)C(C)(C)[C@@H]5CC[C@]43C)[C@@H]12 [Compound 51p, (3β)-17-[2-[[2-(4-Phenylpiperazin-1-yl)ethyl]amino]ethyl]-28-norlup-20(29)-en-3-ol, 3-(1-Hydrogen 2,2-Dimethylbutanedioate)] | 22.5% | 60.0% |  |  |
| C=C(C)[C@@H]1CC[C@]2(CCNCCN3CCN(Cc4cccc5ccccc45)CC3)CC[C@]3(C)[C@H](CC[C@@H]4[C@@]5(C)CC[C@H](OC(=O)CC(C)(C)C(=O)O)C(C)(C)[C@@H]5CC[C@]43C)[C@@H]12 [Compound 51q, (3β)-17-[2-[[2-[4-(1-Naphthalenylmethyl)piperazin-1-yl]ethyl]amino]ethyl]-28-norlup-20(29)-en-3-ol, 3-(1-Hydrogen 2,2-Dimethylbutanedioate)] | 11.6% | 26.8% |  |  |
| C=C(C)[C@@H]1CC[C@]2(CCNCCN3CCN(CC4CCCCC4)CC3)CC[C@]3(C)[C@H](CC[C@@H]4[C@@]5(C)CC[C@H](OC(=O)CC(C)(C)C(=O)O)C(C)(C)[C@@H]5CC[C@]43C)[C@@H]12 [Compound 51s, (3β)-17-[2-[[2-[4-(Cyclohexylmethyl)piperazin-1-yl]ethyl]amino]ethyl]-28-norlup-20(29)-en-3-ol, 3-(1-Hydrogen 2,2-Dimethylbutanedioate)] | 14.5% | 48.7% |  |  |
| C=C(C)[C@@H]1CC[C@]2(CCNCCN3CCN(Cc4ccc5ccccc5n4)CC3)CC[C@]3(C)[C@H](CC[C@@H]4[C@@]5(C)CC[C@H](OC(=O)CC(C)(C)C(=O)O)C(C)(C)[C@@H]5CC[C@]43C)[C@@H]12 [Compound 51t, (3β)-17-[2-[[2-[4-(2-Quinolinylmethyl)piperazin-1-yl]ethyl]amino]ethyl]-28-norlup-20(29)-en-3-ol, 3-(1-Hydrogen 2,2-Dimethylbutanedioate)] | 18.6% | 56.1% |  |  |
| C=C(C)[C@@H]1CC[C@]2(CCNCCN3CCN(Cc4ccccn4)CC3)CC[C@]3(C)[C@H](CC[C@@H]4[C@@]5(C)CC[C@H](OC(=O)CC(C)(C)C(=O)O)C(C)(C)[C@@H]5CC[C@]43C)[C@@H]12 [Compound 51u, (3β)-17-[2-[[2-[4-(2-Pyridinylmethyl)piperazin-1-yl]ethyl]amino]ethyl]-28-norlup-20(29)-en-3-ol, 3-(1-Hydrogen 2,2-Dimethylbutanedioate)] | 30.2 (2) % | 53.8% |  |  |
| C=C(C)[C@@H]1CC[C@]2(CNCCCN3CCCC3)CC[C@]3(C)[C@H](CC[C@@H]4[C@@]5(C)CC[C@H](OC(=O)CC(C)(C)C(=O)O)C(C)(C)[C@@H]5CC[C@]43C)[C@@H]12 [Compound 51v, (3β)-28-[[3-(1-Pyrrolidinyl)propyl]amino]lup-20(29)-en-3-ol, 3-(1-Hydrogen 2,2-Dimethylbutanedioate) Sulfate] | 10.3% | 21.9% | 26.9% | 57.2% |
| C=C(C)[C@@H]1CC[C@]2(CNCCN3CCN(Cc4ccccc4)CC3)CC[C@]3(C)[C@H](CC[C@@H]4[C@@]5(C)CC[C@H](OC(=O)CC(C)(C)C(=O)O)C(C)(C)[C@@H]5CC[C@]43C)[C@@H]12 [Compound 51w, (3β)-28-[[2-[4-(Phenylmethyl)piperazin-1-yl]ethyl]amino]lup-20(29)-en-3-ol, 3-(1-Hydrogen 2,2-Dimethylbutanedioate) Sesquisulfate] | 9.6% | 16.3% | 21.6% | 50.1% |
| C=C(C)[C@@H]1CC[C@]2(CNCCN3CCN(S(C)(=O)=O)CC3)CC[C@]3(C)[C@H](CC[C@@H]4[C@@]5(C)CC[C@H](OC(=O)CC(C)(C)C(=O)O)C(C)(C)[C@@H]5CC[C@]43C)[C@@H]12 [Compound 51x, (3β)-28-[[2-[4-(Methylsulfonyl)piperazin-1-yl]ethyl]amino]lup-20(29)-en-3-ol, 3-(1-Hydrogen 2,2-Dimethylbutanedioate) Sulfate] | 31.0% | 56.6% | 26.9% | 74.3% |
| C=C(C)[C@@H]1CC[C@]2(CNCCN3CCS(=O)(=O)CC3)CC[C@]3(C)[C@H](CC[C@@H]4[C@@]5(C)CC[C@H](OC(=O)CC(C)(C)C(=O)O)C(C)(C)[C@@H]5CC[C@]43C)[C@@H]12 [Compound 51y, (3β)-28-[[2-[(1,1-Dioxothiomorpholin-4-yl)]ethyl]amino]lup-20(29)-en-3-ol, 3-(1-Hydrogen 2,2-Dimethylbutanedioate) Sulfate] | 28.5% | 56.4% | 28.1% | 69.4% |
| C=C(C)[C@@H]1CC[C@]2(CCNCCCN3CCCC3)CC[C@]3(C)[C@H](CC[C@@H]4[C@@]5(C)CC[C@H](OC(=O)CC(C)(C)C(=O)O)C(C)(C)[C@@H]5CC[C@]43C)[C@@H]12 [Compound 51z, (3β)-17-[2-[[3-(1-Pyrrolidinyl)propyl]amino]ethyl]-28-norlup-20(29)-en-3-ol, 3-(1-Hydrogen 2,2-Dimethylbutanedioate) Sulfate] | 7.5% | 9.5% | 10.5% | 19.9% |
